Source: PMC12705620 (Frontiers in Pharmacology, 2025)
Bridge positions count the residues as written; N and C are the ends. Square brackets hold non-standard residues; d marks the D form. Peptide text beside a SMILES is read from it. I, II: the chains in the order shown. Dap = NC[C@H](N)C(=O)O; Ahx = NCCCCCC(=O)O

Key:
[1] = tested on: S. aureus RN4220 (mCherry) in dTHP-1 macrophages; assay: Intracellular bacterial killing in macrophages; assay type: cell-based, Staphylococcus aureus; conditions: 24 h pre-treatment at 1 µM and 2 µM, MOI 2, CFU after lysis, versus no treatment
Experimental: Human monocytes (THP-1; TIB-202; ATCC) were cultured in RPMI 1,640 medium (Gibco) supplemented with 10% FBS. For differentiation into macrophage-like cells (dTHP-1), THP-1 monocytes were seeded in 96-well plates at 3 × 10^4 cells/well (100 µL) in RPMI supplemented with 50 ng/mL phorbol 12-myristate 13-acetate (PMA; Sigma-Aldrich), and incubated for 48 h. The protocol for intracellular killing was adapted from Tang et al. ([Tang et al., 2015]) with modifications. After differentiation, dTHP-1 cells were pre-treated with one or 2 µM peptide solutions in fresh RPMI for 24 h. Subsequently peptides were removed by washing three times with PBS. An mCherry-expressing S. aureus strain, prepared as described in Section 5.2, was used. This strain is efficiently internalized by macrophages ([Cuypers et al., 2024]). Bacteria were added to dTHP-1 cells at a multiplicity of infection (MOI) of 2:1 and incubated for 45 min at 37 °C with 5% CO2 for phagocytosis. Extracellular bacteria were then removed by washing the wells three times with 60 µL PBS, followed by a final wash with 200 µL PBS.dTHP-1 cells were either lysed immediately to quantify the number of intracellular bacteria, after phagocytosis (T = 0 h) or were incubated for 24 h (T = 24 h) in RPMI supplemented with 10 μg/mL gentamicin (Sigma-Aldrich) to inhibit extracellular bacterial growth (in both peptide-treated and control dTHP-1 cells). Internalized bacteria were quantified after lysing the cells with 0.025% Triton X-100 in PBS for 15 min. Lysates were serially diluted (both at 0 h and 24 h) and plated onto BA for CFU enumeration to assess intracellular bacterial survival.

[2] = tested on: human skin fibroblast cells (BJ); assay: Cytotoxicity (WST-1 and LDH); assay type: cell-based
Experimental: (§1) Cells (5 × 10^5 cells/mL) were seeded in 96-well plates (100 μL/well; Thermo Scientific) and allowed to adhere for 24 h. After adhesion, monolayers were exposed to two-fold serial dilutions of the tetrameric and reference peptides (final concentrations: 60–0.05 µM) in fresh DMEM containing 2% (v/v) FBS, and incubated for 24 h at 37 °C in a humidified 5% CO2 atmosphere. Cell viability was assessed using the water-soluble tetrazolium salt (WST-1; Roche) assay, and membrane integrity was measured using the lactate dehydrogenase (LDH) release assay (Abcam), following manufacturer instructions. Absorbance was measured using the Synergy H1 microplate reader (Biotek). Results are expressed as percentages relative to untreated control (for WST-1) and positive lysis control (for LDH) and all experiments were performed in triplicate.

[3] = tested on: HaCaT human keratinocytes; assay: Cytotoxicity (WST-1 and LDH); assay type: cell-based
Experimental: as §1

[4] = tested on: TNF-α production by dTHP-1 macrophages stimulated with LPS (E. coli O111:B4); assay: Endotoxin neutralization, LPS-stimulated macrophages; assay type: cell-based, human; conditions: LPS 5 ng/mL with 1 or 2 µM peptide, 4 h, serum-free RPMI, ELISA, versus NT
Experimental: The endotoxin-neutralizing capacity of the peptides was assessed by measuring tumor necrosis factor-alpha (TNF-α) production by dTHP-1 macrophages. dTHP-1 macrophages were stimulated with either lipopolysaccharide (LPS; E. coli O111:B4; 5 ng/mL, Sigma-Aldrich) or UV-inactivated S. aureus JAR060131 (MOI 2; as described in Section 5.2), in the presence or absence of one or 2 µM peptides. Cells were cultured in serum-free RPMI and incubated for 4 h at 37 °C with 5% CO2. Positive controls consisted of cells stimulated with LPS or UV-S. aureus without peptide treatment (no treatment, NT), and unstimulated cells served as negative controls. After stimulation, cell supernatants were collected, and cytokine levels of TNF-α were quantified using human ELISA kits (R&D Systems, USA) according to the manufacturer’s instructions. Each condition was tested in triplicate.

S. aureus JAR060131 = assay: Bactericidal (time-kill) kinetics; assay type: cell-based, Staphylococcus aureus; conditions: for Time to complete bacterial eradication: all tested concentrations (0.94, 1.88, 3.75 µM); for Log reduction in CFU: within 5 min at 3.75 µM
Experimental: (§2) Time-kill kinetics were evaluated against S. aureus JAR060131 and A. baumannii RUH875. Mid-logarithmic phase bacterial cultures were diluted to a final concentration of 1 × 10^6 CFU/mL in PBS. Bacteria were incubated with 0.5-, 2-, and 4-fold the LC99.9. Assays were conducted in polypropylene tubes (Micronics) with a total volume of 500 µL. Control samples consisted of bacteria incubated in PBS alone. At 1, 5, 30, and 120 min, 50 µL samples were collected and immediately added to 50 µL of 0.05% (v/v) sodium polyanethol sulfonate (SPS; Sigma-Aldrich) in PBS to neutralize residual peptide activity ([Dankert et al., 1995]). Viable bacterial counts were determined by plating 10 µL of serial 10-fold dilutions onto BA plates. Colonies were counted after 24 h of incubation at 37 °C. All conditions were performed in triplicate.

[5] = tested on: primary human venous endothelial cells (HUVECs); assay: In vitro angiogenesis (tube formation) assay; assay type: cell-based; conditions: 4 h; for Number of tubular networks formed: 1 µM peptide, Matrigel, versus untreated control
Experimental: Primary human venous endothelial cells (HUVECs; CSC 2V0) were used to evaluate the in vitro angiogenic potential of peptides using a tube formation assay, adapted from Arnaoutova and Kleinman ([Arnaoutova and Kleinman, 2010]). Cells were cultured in low-serum endothelial cell growth medium 2 (2% v/v; Promo Cell). Briefly, 96-well plates were coated with 50 µL/well of phenol red-free, growth factor-reduced basement membrane matrix (Matrigel; Corning), and incubated at 37 °C for 1 h to allow gelation. […] Then, 100 µL of cell suspension (1.5 × 10^4 cells/well) was added to the Matrigel-coated wells in triplicate and incubated at 37 °C, 5% CO2 for 8 h. Tube formation was monitored using the IncuCyte S3 live-cell imaging system (Sartorius) with bright-field microscopy. Images were captured hourly, and the 4-h time point (corresponding to optimal tube formation) was used for analysis. The number of capillary-like structures was quantified using the “Angiogenesis Analyzer” plugin in ImageJ ([Carpentier et al., 2020]). Each peptide condition was tested in triplicate and repeated three times using different Matrigel batches to account for batch-to-batch variability.

A. baumannii RUH875 = assay: Bactericidal (time-kill) kinetics; assay type: cell-based, Acinetobacter baumannii; conditions: for Time to complete killing: 3.75 µM peptide
Experimental: as §2

**Q.** With `N=C(N)NCCC[C@H](NC(=O)[C@H](Cc1c[nH]c2ccccc12)NC(=O)[C@H](CCC(N)=O)NC(=O)[C@H](Cc1c[nH]c2ccccc12)NC(=O)[C@H](CCCNC(=N)N)NC(=O)[C@@H](N)CCCNC(=N)N)C(=O)NCCCC[C@H](NC(=O)[C@H](CCCNC(=N)N)NC(=O)[C@H](Cc1c[nH]c2ccccc12)NC(=O)[C@H](CCC(N)=O)NC(=O)[C@H](Cc1c[nH]c2ccccc12)NC(=O)[C@H](CCCNC(=N)N)NC(=O)[C@@H](N)CCCNC(=N)N)C(=O)NCCCCCC(=O)N[C@@H](CSSC[C@H](NC(=O)CCCCCNC(=O)[C@H](CCCCNC(=O)[C@H](CCCNC(=N)N)NC(=O)[C@H](Cc1c[nH]c2ccccc12)NC(=O)[C@H](CCC(N)=O)NC(=O)[C@H](Cc1c[nH]c2ccccc12)NC(=O)[C@H](CCCNC(=N)N)NC(=O)[C@@H](N)CCCNC(=N)N)NC(=O)[C@H](CCCNC(=N)N)NC(=O)[C@H](Cc1c[nH]c2ccccc12)NC(=O)[C@H](CCC(N)=O)NC(=O)[C@H](Cc1c[nH]c2ccccc12)NC(=O)[C@H](CCCNC(=N)N)NC(=O)[C@@H](N)CCCNC(=N)N)C(N)=O)C(N)=O` [LBT] (I: H-RRWQWRK[Ahx]C-NH2 / II: H-RRWQWRK[Ahx]C-NH2 / III: H-RRWQWR / IV: H-RRWQWR; amide I:7-III:C, II:7-IV:C; disulfide I:9-II:9; N-terminus and C-terminus assumed) as the molecule, how does the “Macrophage reduction of intracellular S. aureus burden 24 h post-phagocytosis” value [1] read?
**A.** significantly enhanced

**Q.** And the “Cytotoxicity, LDH leakage” value [2]?
**A.** 15 µM

**Q.** What about the “Cytotoxicity, Metabolic activity” value [2] of the same molecule?
**A.** 30 µM

**Q.** And the “Cytotoxicity, LDH leakage” value [3]?
**A.** 30 µM

**Q.** And the “Cytotoxicity, Metabolic activity” value [3]?
**A.** 30 µM

**Q.** What about the “Reduction of LPS-induced TNFα levels” value [4] of the same molecule?
**A.** effectively neutralize

**Q.** And the “Time to complete bacterial eradication” value (S. aureus JAR060131)?
**A.** up to 120 min

**Q.** What about the “Log reduction in CFU” value (S. aureus JAR060131) of the same molecule?
**A.** > 3 log

**Q.** What about the “Number of tubular networks formed” value [5] of the same molecule?
**A.** enhanced tube formation

**Q.** What about the “Time to complete killing” value (A. baumannii RUH875) of the same molecule?
**A.** 120 min

**Q.** `N=C(N)NCCC[C@H](NC(=O)[C@H](Cc1c[nH]c2ccccc12)NC(=O)[C@H](CCC(N)=O)NC(=O)[C@H](Cc1c[nH]c2ccccc12)NC(=O)[C@H](CCCNC(=N)N)NC(=O)[C@@H](N)CCCNC(=N)N)C(=O)NC[C@H](NC(=O)[C@H](CCCNC(=N)N)NC(=O)[C@H](Cc1c[nH]c2ccccc12)NC(=O)[C@H](CCC(N)=O)NC(=O)[C@H](Cc1c[nH]c2ccccc12)NC(=O)[C@H](CCCNC(=N)N)NC(=O)[C@@H](N)CCCNC(=N)N)C(=O)NCCCCCC(=O)N[C@@H](CSSC[C@H](NC(=O)CCCCCNC(=O)[C@H](CNC(=O)[C@H](CCCNC(=N)N)NC(=O)[C@H](Cc1c[nH]c2ccccc12)NC(=O)[C@H](CCC(N)=O)NC(=O)[C@H](Cc1c[nH]c2ccccc12)NC(=O)[C@H](CCCNC(=N)N)NC(=O)[C@@H](N)CCCNC(=N)N)NC(=O)[C@H](CCCNC(=N)N)NC(=O)[C@H](Cc1c[nH]c2ccccc12)NC(=O)[C@H](CCC(N)=O)NC(=O)[C@H](Cc1c[nH]c2ccccc12)NC(=O)[C@H](CCCNC(=N)N)NC(=O)[C@@H](N)CCCNC(=N)N)C(N)=O)C(N)=O` [LBT-1] (I: H-RRWQWR[Dap][Ahx]C-NH2 / II: H-RRWQWR[Dap][Ahx]C-NH2 / III: H-RRWQWR / IV: H-RRWQWR; amide I:7-III:C, II:7-IV:C; disulfide I:9-II:9; N-terminus and C-terminus assumed) was tested. Which “Macrophage reduction of intracellular S. aureus burden 24 h post-phagocytosis” value [1] did it give?
**A.** significantly enhanced

**Q.** And the “Cytotoxicity threshold (tolerance), WST-1 and LDH” value [2]?
**A.** 7.5 to 15 µM

**Q.** What about the “Cytotoxicity, LDH leakage” value [2] of the same molecule?
**A.** 7.5 µM

**Q.** And the “Cytotoxicity, Metabolic activity” value [2]?
**A.** 15 µM

**Q.** And the “Cytotoxicity threshold (tolerance), WST-1 and LDH” value [3]?
**A.** 15 µM

**Q.** And the “Cytotoxicity, LDH leakage” value [3]?
**A.** 15 µM

**Q.** And the “Cytotoxicity, Metabolic activity” value [3]?
**A.** 15 µM

**Q.** And the “Reduction of LPS-induced TNFα levels” value [4]?
**A.** effectively neutralize

**Q.** And the “Time to complete bacterial eradication” value (S. aureus JAR060131)?
**A.** up to 120 min

**Q.** What about the “Log reduction in CFU” value (S. aureus JAR060131) of the same molecule?
**A.** > 3 log

**Q.** What about the “Number of tubular networks formed” value [5] of the same molecule?
**A.** significantly increasing the number of networks

**Q.** What about the “Concentration at which tube formation peaked” value ([5]; concentration series 0.5–3 µM) of the same molecule?
**A.** 2 µM

**Q.** What about the “Tube formation at 3 µM” value ([5]; concentration series 0.5–3 µM) of the same molecule?
**A.** declined

**Q.** What about the “Time to complete killing” value (A. baumannii RUH875) of the same molecule?
**A.** ≤ 30 min

**Q.** And the “Log reduction in CFU” value (A. baumannii RUH875; within 1 min at 3.75 µM)?
**A.** > 3 log
